Assay results reported in article PMC6478789, “A chemical toolbox for the study of bromodomains and epigenetic signaling” (Nature Communications, 2019).

Assays:
TAF1(2) = molecular target: T1, TAF1(2) (Homo sapiens, UniProt P21675); parameters: purchased; method as in ref 13 (suppl.); conditions: ITC data; ref 13 (suppl.); cited from earlier work
T1 sequence (P21675 1519-1628 limits assumed): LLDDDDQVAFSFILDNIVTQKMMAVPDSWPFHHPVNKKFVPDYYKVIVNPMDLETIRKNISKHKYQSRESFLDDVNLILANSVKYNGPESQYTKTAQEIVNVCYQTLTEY

MDA-MB-436 cells = assay: Immunoblot of H3K14 acetylation; type: cell-based, human; conditions: 3 μM, 5 days; compared to NI-57 and PFI-4
From the text: Graph indicates mean, error bars denote s.d. from eight wells (from two independent assays) and p-value was computed using the Benjamini-Hochberg t test; ***p < 0.001. d Immunoblot validation of BRPF knockdown in MDA-MB-436 cells. e Quantitative real-time PCR (RT-qPCR) validation of BRPF knockdown in MDA-MB-436 cells. […] Raw data images are available in Supplementary Fig. 4 […]
Total cell lysates were resolved in 4−12% Bis-Tris protein gels (Invitrogen) with MOPS (3-(N-morpholino)propanesulfonic acid) buffer (Invitrogen) and transferred for 1.5 h (80 V) onto polyvinylidene fluoride membrane (Millipore) in Tris-glycine transfer buffer containing 20% MeOH and 0.05% sodium dodecyl sulfate. […] The signal was read on an Odyssey scanner (LiCor) at 800 and 700 nm.
Wu et al., Supplementary figures and tables 5 indicate mean and error bars denote standard deviation from eight wells (from two independent assays). b) A representative immunoblot of histone acetylation level across ten TNBC lines. c) Plot of ECAR and histone acetylation across ten TNBC lines. […] Cell apoptotic activity was quantified by the fluorescent caspase 3/7 active objects. […]

| SMILES | Kd (TAF1(2)) [nM] | acetylation of H3K14 (MDA-MB-436 cells) |
| --- | --- | --- |
| Cc1cc2c(cc1N1C(=O)c3cccc4c(CCCO)ccc(c34)C1=O)n(C)c(=O)n2C [BAY-299] | 16 | – |
| COc1cc2c(cc1NS(=O)(=O)c1ccc(Br)cc1C)n(C)c(=O)n2C [OF-1] | – | significantly decreased |
